Data published in US4277474A, “Treatment of allergic symptoms with propanone derivatives” (Nippon Zoki Pharmaceutical Co., Ltd., priority 1978, dated 1981).
Structures can show the parent of a compound that is named as a salt.

Legend:
[1] = system: Hartley-strain male guinea pig; experiment: Experimental atopic asthma in passively sensitized guinea pigs; type: in vivo; details: 50 mg/kg peroral
Experimental: [Levine, B. B. et al., J. Immunol., 106, 29(1971)] was injected at a dosage of 0.25 ml/guinea pig into the hearts of groups of Hartley-strain male guinea pig (a group consisting of four), each weighing 250-300 g, to make them passively sensitive. […] The rate of breathing and the ratio of expiration time to inspiration time were calculated from the velocity of breathing. As an antigen to induce the reaction 200 μg/kg of benzylpenicilloyl bovine serum albumin [(BPO)23 -BSA] obtained by the method of Levine et al. [Levine et al.; J. Clin. Invest., 47, 556 (1968)] was injected through a cannula into the jugular vein.

[2] = system: homo PCA reaction; experiment: Inhibitory effect on homo PCA reaction in rats; type: in vivo
[3] = system: Peritoneal cavity cells; experiment: Inhibitory effect on histamine release from sensitized peritoneal cavity cells; type: cell-based, rat (Wistar-strain); parameters: Released histamine, fluorescence intensity / Residual histamine, fluorescence intensity / Total histamine, fluorescence intensity: unit not given here; details: for Histamine release rate / Net release rate / inhibition at 10 µM / Released histamine, fluorescence intensity / Residual histamine, fluorescence intensity / Total histamine, fluorescence intensity: 0.01 mM; for Net release rate: release not caused by antigen-antibody reaction deducted
Experimental: The inhibitory effect on histamine release of the compounds according to the present invention was investigated as follows. […] These cells were suspended in a phosphoric acid buffer solution (containing 0.1% of gelatin) and each 0.5 ml portion of this suspension was taken in a polyethylene tube. 1 ml each of solutions of various concentrations of test compound and 0.5 ml of 200 μg/ml of ovalbumin solution were added therein. They were incubated for 20 minutes at 37° C. to measure the histamine release rate. The amount of histamine was measured by a modified Shore method using fluorescence.

[4] = Acute toxicity in mice (LD50, Litchfield-Wilcoxon); details: mouse, in vivo, ICR male mice
Experimental: Acute toxicity tests were carried out by intraperitoneal or peroral administration of the compound according to the present invention to groups of 10 ICR-strain male mice (weighing 20 g on the average), and each LD50 value was determined by Litchfield-Wilcoxon Method.

[5] = system: SRS-A; experiment: Anti-SRS-A effect on guinea pig's ileum (Magnus method)
Experimental: The anti-SRS-A effect of the compounds according to the present invention on guinea pig's ileum was measured by Magnus method. […] One minute thereafter, the ileum contraction inhibiting rate (%) was measured with use of 1 ml of 80% ethanol solution of SRS-A (150 mg/ml).

## Cc1ccc(C(=O)C(C)CN2CCCCC2)cc1 (centres unmarked) [2,4'-dimethyl-3-piperidinopropiophenone, reference compound]
[1]
  inhibition on the variation from the normal values exhibited in the control group (in words): less inhibitory effect than the compounds according to the present invention
[1]; 1 min, 1 h before induction
  Expiration/inspiration: 90.2 ± 4.02%
  Rate of breathing: 120.6 ± 4.98%
  Volume of breathing: 123.4 ± 6.52%
[1]; 3 min, 1 h before induction
  Expiration/inspiration: 93.9 ± 5.09%
  Rate of breathing: 98.5 ± 6.55%
  Volume of breathing: 92.6 ± 8.29%
[1]; 6 min, 1 h before induction
  Expiration/inspiration: 94.3 ± 5.34%
  Rate of breathing: 89.5 ± 3.36%
  Volume of breathing: 96.7 ± 3.97%
[1]; 18 min, 1 h before induction
  Expiration/inspiration: 96.6 ± 2.39%
  Rate of breathing: 91.3 ± 1.57%
  Volume of breathing: 90.6 ± 1.52%
[1]; 30 min, 1 h before induction
  Expiration/inspiration: 94.8 ± 4.76%
  Rate of breathing: 93.3 ± 2.80%
  Volume of breathing: 91.4 ± 6.20%
[1]; 60 min, 1 h before induction
  Expiration/inspiration: 93.9 ± 3.98%
  Rate of breathing: 86.9 ± 6.14%
  Volume of breathing: 90.9 ± 4.47%
[1]; 90 min, 1 h before induction
  Expiration/inspiration: 104.3 ± 6.02%
  Rate of breathing: 84.6 ± 6.03%
  Volume of breathing: 91.0 ± 3.34%
[1]; 130 min, 1 h before induction
  Expiration/inspiration: 107.0 ± 3.44%
  Rate of breathing: 87.3 ± 4.44%
  Volume of breathing: 94.9 ± 4.71%
[1]; 180 min, 1 h before induction
  Expiration/inspiration: 109.3 ± 6.26%
  Rate of breathing: 87.5 ± 6.43%
  Volume of breathing: 93.8 ± 6.49%
[1]; before test
  Expiration/inspiration: 100.0 ± 0.00%
  Rate of breathing: 100.0 ± 0.00%
  Volume of breathing: 100.0 ± 0.00%
[2]; 200 mg/Kg peroral
  inhibition of homo PCA reaction: about 40%
[3]
  Histamine release rate: 50.8%
  Net release rate: 36.9%
[3]; Rattus norvegicus
  inhibition at 10 µM: 0%

## CC(CN1CCCCC1)C(=O)c1ccc2ccccc2c1 (stereo not drawn) [Example 2, 2-methyl-3-piperidino-β-propionaphthone hydrochloride]
[1]; 1 min, 1 h before induction
  Expiration/inspiration: 78.4 ± 9.00%
  Rate of breathing: 120.8 ± 3.19%
  Volume of breathing: 108.2 ± 1.78%
[1]; 3 min, 1 h before induction
  Expiration/inspiration: 108.7 ± 11.36%
  Rate of breathing: 90.3 ± 3.36%
  Volume of breathing: 86.7 ± 4.14%
[1]; 6 min, 1 h before induction
  Expiration/inspiration: 99.8 ± 4.30%
  Rate of breathing: 92.2 ± 5.69%
  Volume of breathing: 90.3 ± 8.26%
[1]; 18 min, 1 h before induction
  Expiration/inspiration: 106.5 ± 5.25%
  Rate of breathing: 91.6 ± 5.71%
  Volume of breathing: 86.0 ± 8.49%
[1]; 30 min, 1 h before induction
  Expiration/inspiration: 100.3 ± 3.41%
  Rate of breathing: 96.4 ± 4.09%
  Volume of breathing: 93.7 ± 3.75%
[1]; 60 min, 1 h before induction
  Expiration/inspiration: 97.0 ± 3.47%
  Rate of breathing: 96.2 ± 3.62%
  Volume of breathing: 96.6 ± 4.92%
[1]; 90 min, 1 h before induction
  Expiration/inspiration: 96.5 ± 3.18%
  Rate of breathing: 94.0 ± 5.23%
  Volume of breathing: 97.6 ± 7.12%
[1]; 130 min, 1 h before induction
  Expiration/inspiration: 106.4 ± 4.19%
  Rate of breathing: 94.3 ± 6.97%
  Volume of breathing: 92.1 ± 9.25%
[1]; 180 min, 1 h before induction
  Expiration/inspiration: 108.7 ± 6.81%
  Rate of breathing: 98.2 ± 5.42%
  Volume of breathing: 97.8 ± 7.28%
[1]; before test
  Expiration/inspiration: 100.0 ± 0.00%
  Rate of breathing: 100.0 ± 0.00%
  Volume of breathing: 100.0 ± 0.00%
[2]
  inhibitory effect on homo PCA reaction, dose dependence (in words): their effects depended on the dose
[2]; 5 mg/Kg intravenous
  inhibition of homo PCA reaction: 62.1%
[3]
  Histamine release rate: 38.6%
  Released histamine, fluorescence intensity: 184
  Residual histamine, fluorescence intensity: 292
  Total histamine, fluorescence intensity: 476
  Net release rate: 24.7%
[3]; Rattus norvegicus
  inhibition at 10 µM: 24.5%
[3]; Rattus norvegicus, 0.1 mM, read-out: Inhibitory effect on histamine release
  inhibition at 100 µM: 60%
[4]; ip, intraperitoneal
  LD50: 120 mg/kg
[4]; po, peroral
  LD50: 370 mg/kg
[5]; 10^-4 g/ml
  ileum contraction inhibiting rate: 76.0 ± 7.23%
[5]; 10^-5 g/ml
  ileum contraction inhibiting rate: 53.7 ± 8.68%
[5]; 10^-6 g/ml
  ileum contraction inhibiting rate: 10.0 ± 8.08%

## Cc1ccc(C(=O)C(C)CN2CCCCC2)cc1C.Cl (centres unmarked) [Example 5, 2,3',4'-trimethyl-3-piperidinopropiophenone hydrochloride]
[1]; 1 min, 1 h before induction
  Expiration/inspiration: 77.6 ± 3.68%
  Rate of breathing: 122.0 ± 16.99%
  Volume of breathing: 100.5 ± 5.01%
[1]; 3 min, 1 h before induction
  Expiration/inspiration: 92.3 ± 2.19%
  Rate of breathing: 93.7 ± 7.20%
  Volume of breathing: 86.9 ± 5.99%
[1]; 6 min, 1 h before induction
  Expiration/inspiration: 98.7 ± 3.93%
  Rate of breathing: 93.7 ± 5.80%
  Volume of breathing: 86.4 ± 6.96%
[1]; 18 min, 1 h before induction
  Expiration/inspiration: 97.7 ± 2.62%
  Rate of breathing: 99.9 ± 4.00%
  Volume of breathing: 86.3 ± 3.71%
[1]; 30 min, 1 h before induction
  Expiration/inspiration: 103.2 ± 1.10%
  Rate of breathing: 92.5 ± 1.76%
  Volume of breathing: 86.6 ± 2.44%
[1]; 60 min, 1 h before induction
  Expiration/inspiration: 94.3 ± 3.87%
  Rate of breathing: 97.0 ± 1.81%
  Volume of breathing: 93.5 ± 6.17%
[1]; 90 min, 1 h before induction
  Expiration/inspiration: 96.7 ± 4.58%
  Rate of breathing: 90.7 ± 6.14%
  Volume of breathing: 93.5 ± 3.78%
[1]; 130 min, 1 h before induction
  Expiration/inspiration: 106.2 ± 5.28%
  Rate of breathing: 92.9 ± 5.33%
  Volume of breathing: 87.4 ± 3.03%
[1]; 180 min, 1 h before induction
  Expiration/inspiration: 100.1 ± 2.03%
  Rate of breathing: 97.5 ± 1.82%
  Volume of breathing: 95.1 ± 3.33%
[1]; before test
  Expiration/inspiration: 100.0 ± 0.00%
  Rate of breathing: 100.0 ± 0.00%
  Volume of breathing: 100.0 ± 0.00%
[2]
  inhibitory effect on homo PCA reaction, dose dependence (in words): their effects depended on the dose
[2]; 200 mg/Kg peroral
  inhibition of homo PCA reaction: about 70%
[3]
  Histamine release rate: 42.9%
  Released histamine, fluorescence intensity: 210
  Residual histamine, fluorescence intensity: 280
  Total histamine, fluorescence intensity: 490
  Net release rate: 29.0%
[3]; Rattus norvegicus
  inhibition at 10 µM: 11.3%
[4]; ip, intraperitoneal
  LD50: 117 mg/kg
[4]; po, peroral
  LD50: 325 mg/kg
[5]; 10^-4 g/ml
  ileum contraction inhibiting rate: 100.0 ± 0%
[5]; 10^-5 g/ml
  ileum contraction inhibiting rate: 67.7 ± 8.11%
[5]; 10^-6 g/ml
  ileum contraction inhibiting rate: 12.3 ± 8.25%
